Measured values reported in patent US20130040935A1, “CYCLIC KETO-ENOLS FOR THERAPY” (BAYER INTELLECTUAL PROPERTY GMBH, priority 2010, published 2013).
Read-outs that look alike come from different tables or passages of the source.

Legend:
[1] = molecular target: T1, human ACC1 (acetyl-coenzyme A carboxylase alpha transcript variant 1) (Homo sapiens, UniProt Q13085); assay: Human ACC1 enzyme assay, Assay B1 (ADP-Glo); format: biochemical
T1 construct: FLAG (C); made in house; host or cells: baculovirus-infected insect cells (Hi5)

MCF7 = assay: Cell proliferation assay (CellTiter-Glo, 96 h), MCF7; format: cell-based; conditions: Homo sapiens
Protocol: In accordance with the invention, the substances were tested in cell-based assays for the ability of the substances of inhibiting tumour cell proliferation after a 96-hour incubation with the substance. Cell viability was tested using the CellTiter-Glo® luminescent cell viability assay (Promega). The cells were sown at a density of 2000-5000 cells/well (depending on the cell line) in 100 μl growth medium on 96-well microtitre plates. For each cell line examined, cells were sown on a separate plate to determine the luminescence at t=0 hours and t=96 hours. After overnight incubation at 37° C., the luminescence values for the t=0 samples were determined. The dose plates for the t=96 hours points in time were treated with substances diluted with growth medium. The cells were then incubated at 37° C. for 96 hours, and the luminescence values for the t=96 hours sample were then determined. For data analysis, the t=0 values were subtracted from the t=96 hour values for treated and untreated samples. The differences in luminescence in percent between substance-treated samples and control values were used to determine the growth inhibition in percent.
The substances were tested in the following cell lines which represent the stated indications in an exemplary manner: […]

[2] = molecular target: human ACC2 (acetyl-coenzyme A carboxylase 2) (Homo sapiens, UniProt O00763); assay: Human ACC2 enzyme assay, Assay B2 (ADP-Glo);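 further: human ACC2 activity read as ADP product, detected by luciferase glow luminescence after residual ATP removal, enzyme near 2 ng/µl in linear range, detection steps at 22 °C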
[3] = Assay B1, read-out: ACC 1 (=B1) IC50
[4] = MCF7, Table 9a, 96-hour incubation
[5] = MCF7, Table 7, 96-hour incubation

Sequence of human ACC2 (acetyl-coenzyme A carboxylase 2) (O00763 27-2458 limits assumed): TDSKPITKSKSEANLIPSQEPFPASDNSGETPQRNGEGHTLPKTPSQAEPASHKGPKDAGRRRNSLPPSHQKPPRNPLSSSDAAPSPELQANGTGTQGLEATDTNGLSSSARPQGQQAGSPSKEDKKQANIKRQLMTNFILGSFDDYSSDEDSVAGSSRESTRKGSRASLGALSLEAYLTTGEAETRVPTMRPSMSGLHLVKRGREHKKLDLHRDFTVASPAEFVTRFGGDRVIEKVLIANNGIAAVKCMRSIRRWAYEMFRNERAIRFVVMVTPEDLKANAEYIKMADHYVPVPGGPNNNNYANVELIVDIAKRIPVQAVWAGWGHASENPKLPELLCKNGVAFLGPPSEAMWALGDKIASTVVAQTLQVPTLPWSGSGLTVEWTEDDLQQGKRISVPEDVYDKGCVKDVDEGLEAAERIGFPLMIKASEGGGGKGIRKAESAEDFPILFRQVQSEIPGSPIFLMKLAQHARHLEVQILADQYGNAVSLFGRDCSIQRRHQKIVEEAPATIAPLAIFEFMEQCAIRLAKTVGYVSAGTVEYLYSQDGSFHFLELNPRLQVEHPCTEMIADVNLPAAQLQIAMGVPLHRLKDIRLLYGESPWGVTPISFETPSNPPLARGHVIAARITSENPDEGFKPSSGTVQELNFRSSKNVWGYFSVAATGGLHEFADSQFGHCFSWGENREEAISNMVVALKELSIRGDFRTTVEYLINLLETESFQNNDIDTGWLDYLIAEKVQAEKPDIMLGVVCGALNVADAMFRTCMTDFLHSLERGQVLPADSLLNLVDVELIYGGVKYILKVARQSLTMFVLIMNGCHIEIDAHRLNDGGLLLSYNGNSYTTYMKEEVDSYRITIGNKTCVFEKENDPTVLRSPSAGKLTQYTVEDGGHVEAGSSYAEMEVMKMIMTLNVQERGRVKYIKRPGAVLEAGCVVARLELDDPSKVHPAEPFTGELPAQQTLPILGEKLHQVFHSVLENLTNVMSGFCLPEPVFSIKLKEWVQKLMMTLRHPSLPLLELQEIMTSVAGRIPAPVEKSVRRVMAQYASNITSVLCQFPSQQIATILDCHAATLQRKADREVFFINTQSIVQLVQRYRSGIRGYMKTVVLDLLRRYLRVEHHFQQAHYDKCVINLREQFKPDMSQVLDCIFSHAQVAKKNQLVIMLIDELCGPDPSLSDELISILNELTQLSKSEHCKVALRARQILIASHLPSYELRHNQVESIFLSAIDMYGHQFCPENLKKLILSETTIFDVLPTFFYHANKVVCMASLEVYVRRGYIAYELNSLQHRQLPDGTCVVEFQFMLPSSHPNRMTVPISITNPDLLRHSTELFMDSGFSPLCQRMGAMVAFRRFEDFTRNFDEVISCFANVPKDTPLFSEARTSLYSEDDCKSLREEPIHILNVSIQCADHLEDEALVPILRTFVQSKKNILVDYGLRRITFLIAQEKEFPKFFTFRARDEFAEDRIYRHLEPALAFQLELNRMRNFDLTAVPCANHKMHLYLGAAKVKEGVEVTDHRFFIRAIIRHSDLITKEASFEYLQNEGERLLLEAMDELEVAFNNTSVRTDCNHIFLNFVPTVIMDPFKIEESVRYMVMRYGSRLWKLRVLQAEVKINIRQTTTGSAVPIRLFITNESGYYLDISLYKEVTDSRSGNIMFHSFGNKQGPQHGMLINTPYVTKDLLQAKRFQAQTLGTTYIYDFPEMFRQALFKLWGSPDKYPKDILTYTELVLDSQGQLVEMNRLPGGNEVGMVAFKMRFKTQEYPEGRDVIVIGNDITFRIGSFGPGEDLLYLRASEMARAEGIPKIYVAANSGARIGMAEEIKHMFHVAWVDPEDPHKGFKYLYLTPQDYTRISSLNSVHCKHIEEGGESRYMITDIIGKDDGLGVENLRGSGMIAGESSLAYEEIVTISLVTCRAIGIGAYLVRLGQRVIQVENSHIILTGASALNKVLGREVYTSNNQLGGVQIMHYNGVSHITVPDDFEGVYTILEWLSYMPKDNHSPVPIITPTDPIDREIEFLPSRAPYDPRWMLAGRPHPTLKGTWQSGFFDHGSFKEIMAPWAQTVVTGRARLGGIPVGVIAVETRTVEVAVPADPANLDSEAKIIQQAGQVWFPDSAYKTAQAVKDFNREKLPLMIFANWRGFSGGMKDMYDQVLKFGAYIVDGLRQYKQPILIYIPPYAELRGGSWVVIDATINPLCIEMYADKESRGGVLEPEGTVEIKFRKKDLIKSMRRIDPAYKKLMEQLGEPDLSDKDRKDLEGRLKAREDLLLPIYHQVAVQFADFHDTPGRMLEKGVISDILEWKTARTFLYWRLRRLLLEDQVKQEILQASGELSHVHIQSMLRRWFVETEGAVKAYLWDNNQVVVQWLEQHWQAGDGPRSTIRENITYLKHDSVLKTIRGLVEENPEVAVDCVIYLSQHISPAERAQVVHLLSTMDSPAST

IC50 [1, 3] [µM] | IC50 (MCF7; MCF7 cells) [µM] | IC50 (MCF7; [4]) [µM] | IC50 (MCF7; [5]) [µM] | IC50 [2] [µM] | SMILES | IC50 [1] [µM] | also measured
0.397 | 0.299 | – | – | – | Cc1ccc(-c2ccc(Cl)cc2)cc1-c1c(O)c2ccc(Cl)cc2[nH]c1=O [9-11, 7-chloro-3-(4′-chloro-4-methylbiphenyl-3-yl)-4-hydroxyquinolin-2(1H)-one] | – | IC50 ([2]; read-out: ACC 2 (=B2) IC50, Assay B2): 4.07 µM
0.297 | – | – | 0.112 | 11.4 | Cc1ccc(-c2ccc(Cl)cc2)c(C)c1C1=C(O)C2(CCC3(CCCO3)CC2)NC1=O (stereo not shown) [1-34, 11-(4′-chloro-2,4-dimethylbiphenyl-3-yl)-12-hydroxy-1-oxa-9-azadispiro[4.2.4.2]tetradec-11-en-10-one] | – | –
– | 0.4 | – | – | 1.18 | COCC1CCC2(CC1)OC(=O)C(c1c(C)ccc(-c3ccc(Cl)cc3)c1C)=C2O (stereo not shown) [2-17, 3-(4′-chloro-2,4-dimethylbiphenyl-3-yl)-4-hydroxy-8-(methoxymethyl)-1-oxaspiro[4.5]dec-3-en-2-one] | – | IC50 ([1]; Assay B1, ADP-Glo, read-out: ACC 1 (=B1) IC50): 0.058 µM
1.03 | – | 0.338 | – | 7.19 | Cc1ccc(-c2ccc(Cl)cc2)cc1C1=C(O)C2(CCCCCC2)CC1=O [6-7, 3-(4′-chloro-4-methylbiphenyl-3-yl)-4-hydroxyspiro[4.6]undec-3-en-2-one] | – | –
5.81 | – | – | 0.191 | > 20 | Cc1cc(C)c(-c2ccc(Cl)cc2)cc1C1=C(O)C2(CCCOC2)NC1=O (stereo not shown) [1-8, 3-(4′-chloro-4,6-dimethylbiphenyl-3-yl)-4-hydroxy-7-oxa-1-azaspiro[4.5]dec-3-en-2-one] | – | –
3.76 | 1.26 | – | – | – | Cc1ccc(-c2ccc(Cl)cc2)cc1C1=C(O)CC(C)(C)NC1=O [9-1, 3-(4′-chloro-4-methylbiphenyl-3-yl)-4-hydroxy-6,6-dimethyl-5,6-dihydropyridin-2(1H)-one] | – | –
1.74 | – | 0.974 | – | 13 | Cc1cc(C)c(-c2ccc(Cl)cc2)cc1C1=C(O)CC(C)(C)CC1=O [7-3, 2-(4′-chloro-4,6-dimethylbiphenyl-3-yl)-3-hydroxy-5,5-dimethylcyclohex-2-en-1-one] | – | –
0.501 | – | 1.21 | – | – | Cc1ccc(-c2ccc(Cl)cc2)cc1C1=C(O)CC2(CCCCC2)CC1=O [7-2, 3-(4′-chloro-4-methylbiphenyl-3-yl)-4-hydroxyspiro[5.5]undec-3-en-2-one] | – | –
2.54 | 3.44 | – | – | – | Cc1ccc(-c2ccc(Cl)cc2)cc1C1=C(O)CC(C)(C)N(C)C1=O [9-4, 3-(4′-chloro-4-methylbiphenyl-3-yl)-4-hydroxy-1,6,6-trimethyl-5,6-] | – | –
– | – | – | 1.28 | – | CO[C@H]1CC[C@]2(CC1)NC(=O)C(c1c(C)cc(C)c(-c3ccc(F)cc3)c1C)=C2O [1-42, (5s,8s)-3-(4′-fluoro-2,4,6-trimethylbiphenyl-3-yl)-4-hydroxy-8-methoxy-1-azaspiro[4.5]dec-3-en-2-one] | – | –

SMILES | IC50 [1, 3] [µM] | IC50 (MCF7; MCF7 cells) [µM] | IC50 (MCF7; [4]) [µM] | IC50 (MCF7; [5]) [µM] | IC50 [2] [µM] | IC50 [1] [µM] | also measured
Cc1ccc(-c2ccc(Cl)cc2)cc1C1=C(O)CC(C)(C)CC1=O [7-5, 2-(4′-chloro-4-methylbiphenyl-3-yl)-3-hydroxy-5,5-dimethylcyclohex-2-en-1-one] | – | – | 0.992 | – | – | 0.906 | –
COCC1CCCC2(C1)NC(=O)C(c1cc(-c3ccc(Cl)cc3)ccc1Cl)=C2O (stereo not shown) [1-52, 3-(4,4′-dichlorobiphenyl-3-yl)-4-hydroxy-7-(methoxymethyl)-1-azaspiro[4.5]dec-3-en-2-one] | – | – | – | 0.739 | 16 | 1.79 | –
COC1CCC2(CC1)NC(=O)C(c1c(C)cc(C)c(-c3ccc(Cl)cc3)c1C)=C2O (stereo not shown) [1-9, 3-(4′-chloro-2,4,6-trimethylbiphenyl-3-yl)-4-hydroxy-8-methoxy-1-azaspiro[4.5]dec-3-en-2-one] | – | – | – | 0.287 | 0.276 | 11.4 | –
O=C1C(c2cc(-c3ccc(Cl)cc3)ccc2Cl)C(=O)N2CCCCN12 [8-2, 2-(4,4′-dichlorobiphenyl-3-yl)tetrahydro-1H-pyrazolo[1,2-a]pyridazine-1,3(2H)-dione] | – | – | 0.878 | – | – | 0.401 | –
Cc1ccc(-c2ccc(Cl)cc2)cc1C1C(=O)N(C)OC(C)(C)C1=O (stereo not shown) [11-1, 4-(4′-chloro-4-methylbiphenyl-3-yl)-2,6,6-trimethyl-1,2-oxazinane-3,5-dione] | – | 3.33 | – | – | – | 19.2 | –
